Test results as given in US6342217B1, “Radiation enhanced gene therapy for tumors expressing a gene for a viral pyrimidine kinase in the presence of a 5′-halogenated pyrimidine” (Human Gene Therapy Research Institute, priority 1995, dated 2002).

Legend:
mammalian cells = settings: cited from earlier work
[1] = tested on: A375NV (no vector) melanoma cells; assay: in vitro clonogenic assay of radiosensitivity, non-transduced cells; assay type: cell-based, human
Source text: (§1) For this example, a vector, termed LNSTK was kindly provided by F. Moolten which contained the HS-tk gene driven by the SV40 early promoter. Other transformation vectors containing the HS-tk retroviral vector such as the LTKOSN.2 vector by the Human Gene Therapy Research Institute (Des Moines, Iowa) are commercially available. Another such vector is the GITkSvNa vector by Genetic Therapy Inc., Gaithersburg, Md. A human A375 melanoma cell line was used because of its ease of growth and rapid colony formation in a clonogenic assay. The survival of A375NV (no vector) and A375TK (transduced with LNStk vector) after 30 GY of gamma-radiation with 0,1, or 10 µg/ml IdC is shown in FIG. 2.
(§2) […] cells were plated in a 100 cm^2 tissue culture dish in free media. The next day drug was added in the appropriate concentration. 48 hours later the cells were irradiated with 30 GY from a 250 KV X-ray machine as a single dose. The cells were then trypsinized and replated at between 2.5×10^2 and 1×10^6 cells per plate in triplicate for each data point. After twelve days the cells were fixed, stained and macroscopic colonies containing […] were counted. Measurements in the graph were corrected for plating efficiency. […] Irradiated A375 NV preincubated with 0,1 or 10 μg/ml of IdC had 18.6, 19.3 and 18.3 percent survival respectively. Irradiated A375 tk cells preincubated with 0,1, or 10 μg/ml of IdC had 15.7, 9.9 and 4.4 percent survival respectively.
(§3) In FIG. 3 another experiment is shown, design similar to Example 1. This experiment compared radio sensitivity of A375 NV and A375 tk cells after preincubation with 10 μg/ml of BrdC for 48 hours before X-ray exposure. […] Survival percentages for cells incubated with 10 μg of BrdC and then irradiated with 30 Gy were divided by the survival fraction of cells incubated with 10 μg/ml of BrdC and then mock irradiated.

[2] = tested on: A375TK (transduced with LNStk vector) melanoma cells; assay: in vitro clonogenic assay of radiosensitivity, HS-tk transduced cells; assay type: cell-based, human; settings: for survival (figure legend): cells transformed with the STK vector, drug and radiation
Source text: as §1, §2, §3

[3] = tested on: mixture of 50% A375 NV and 50% A375 HS-tk cells; assay: clonogenic assay of bystander effect, mixed cells at high density; assay type: cell-based, human; settings: 10 μg/ml, 30 Gy
Method: Without wishing to be bound by any theory it is hypothesized that HSV-tk transduced tumor cells are able to sensitize non transduced tumor cells in their vicinity through a bystander effect via metabolic cooperation. Specifically, cells that are not transduced with HS-tk gene can also be sensitized to radiation. […] These cells were plated at a density of 3×10^6 cells per 100 cm^2 tissue culture dish the afternoon prior to adding 10 μg/ml BrdC to the media. […] In contrast the experimentally obtained survival for this mixture of cells when plated together at high density was only 6.2%.

[4] = biological target: mammalian deoxycytidine kinase (Homo sapiens, UniProt P27707); settings: with respect to mammalian deoxycytidine kinase; cited from earlier work
mammalian deoxycytidine kinase, sequence (P27707 whole entry): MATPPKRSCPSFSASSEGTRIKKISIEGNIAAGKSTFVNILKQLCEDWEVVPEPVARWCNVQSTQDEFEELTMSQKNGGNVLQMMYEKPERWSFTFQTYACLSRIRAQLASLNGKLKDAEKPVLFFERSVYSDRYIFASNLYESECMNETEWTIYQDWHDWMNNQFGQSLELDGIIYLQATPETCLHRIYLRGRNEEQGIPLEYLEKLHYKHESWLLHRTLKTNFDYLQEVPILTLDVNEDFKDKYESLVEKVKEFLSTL

[5] = biological target: T1, Mammalian thymidine kinase (Homo sapiens, UniProt P04183); settings: cited from earlier work
T1 sequence (P04183 1-234): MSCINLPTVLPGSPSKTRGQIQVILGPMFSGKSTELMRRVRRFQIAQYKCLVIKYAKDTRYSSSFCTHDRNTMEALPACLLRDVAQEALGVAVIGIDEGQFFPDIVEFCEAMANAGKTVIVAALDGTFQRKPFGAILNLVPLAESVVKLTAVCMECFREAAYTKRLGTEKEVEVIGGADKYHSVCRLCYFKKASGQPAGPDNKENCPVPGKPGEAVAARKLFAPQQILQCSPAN

[6] = biological target: Herpes pyrimidine nucleoside kinase (HSV-tk) (Human herpesvirus 1, UniProt P0DTH5); settings: with respect to Herpes pyrimidine nucleoside kinase / HSV-tk; cited from earlier work
Herpes pyrimidine nucleoside kinase (HSV-tk), sequence (P0DTH5 whole entry): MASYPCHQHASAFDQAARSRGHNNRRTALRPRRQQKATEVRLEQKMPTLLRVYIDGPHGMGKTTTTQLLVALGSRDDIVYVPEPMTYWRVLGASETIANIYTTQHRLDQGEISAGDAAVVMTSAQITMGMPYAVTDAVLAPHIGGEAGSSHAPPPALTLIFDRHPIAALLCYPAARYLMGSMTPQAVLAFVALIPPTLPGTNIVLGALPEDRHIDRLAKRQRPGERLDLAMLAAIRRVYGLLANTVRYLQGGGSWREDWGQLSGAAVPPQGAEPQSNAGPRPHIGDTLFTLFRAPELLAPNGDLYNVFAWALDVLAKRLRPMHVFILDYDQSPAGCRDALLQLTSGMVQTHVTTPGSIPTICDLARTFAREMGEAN

[7] = irradiated (30 Gy) A375 tk preincubated with 10 μg/ml, before adjustment
[8] = non irradiated A375 tk, 10 μg/ml drug 48 h, compared to non-irradiated control cells not preincubated with drug

For `O=C1NC(O)CCN1[C@@H]1O[C@H](CO)[C@@H](O)[C@H]1O` (some centres unmarked) [Tetrahydrouridine, tetrahydrouridine], the “safety in mammalian cells” value (mammalian cells) is given as “safe and non toxic”.

For `Nc1nc(=O)n([C@H]2C[C@H](O)[C@@H](CO)O2)cc1Br` [BrdC, 5-bromo-2′-deoxycytidine], the survival ([1]; 100% A375 NV plated at 3×10^6 cells per dish (about 90% confluent), 10 μg/ml, 30 Gy) was 13.1%, the “adjusted survival (irradiated survival divided by nonirradiated surviving fraction)” value ([1]; A375 NV, 10 μg/ml, 30 Gy) was 9% and the survival ([2]; 100% A375 tk plated at 3×10^6 cells per dish (about 90% confluent), 10 μg/ml, 30 Gy) was 3.5%. For the same compound, the “adjusted survival (irradiated survival divided by nonirradiated surviving fraction)” value ([2]; A375 tk, 10 μg/ml, 30 Gy) was 6.9%, the “survival (figure legend)” value [2] was “less than 10%” and the percent survival [2, 7] was 2.3%. The survival [2, 8] was 33%, the “experimentally obtained survival of the mixture” value ([3]; 50% A375 tk and 50% A375 NV plated together at high density) was 6.2% and the “expected survival of the mixture (half of tk plus half of NV survival)” value ([3]; 50% A375 tk and 50% A375 NV, theoretical) was 8.3%. For the same compound, the Km [4] was 2100 µM, the “phosphorylation by mammalian thymidine kinase” value [5] was “cannot phosphorylate” and the Km [6] was 2 µM.

In the case of `Nc1ccn([C@H]2C[C@H](O)[C@@H](CO)O2)c(=O)n1` [Deoxycytidine, deoxycytidine, reference compound], the Km [6] is listed as 500 µM.

In the case of `Nc1nc(=O)n([C@H]2C[C@H](O)[C@@H](CO)O2)cc1I` [IdC, 5-iodo-2′-deoxycytidine], the “radiation potentiation in the absence of the HS-tk gene” value ([1]; IdC 1 or 10 μg/ml, 30 Gy) is reported as “no degree radiation potentiation was seen”, the percent survival ([1]; irradiated (30 Gy) A375 NV preincubated with 1 μg/ml) is reported as 19.3% and the percent survival ([1]; irradiated (30 Gy) A375 NV preincubated with 10 μg/ml) is reported as 18.3%. The survival ([1]; non irradiated A375 NV, 10 μg/ml drug 48 h, compared to non-irradiated control cells not preincubated with drug) was 73%, the “survival (figure legend)” value ([1]; nontransformed cells treated with radiation) was “approximately 50%” and the “survival (figure legend)” value [2] was “less than 10%”. The percent survival ([2]; irradiated (30 Gy) A375 tk preincubated with 1 μg/ml) was 9.9%, the percent survival [2, 7] was 4.4% and the survival [2, 8] was 54%. The Km [4] was 4000 µM, the “phosphorylation by mammalian thymidine kinase” value [5] was “cannot phosphorylate” and the Km [6] was 2 µM.
